# Reference: paper PMC7263498 (bioRxiv, 2020)
# Molecular target: M^Pro (SARS-CoV-2 main protease) (Severe acute respiratory syndrome coronavirus 2, UniProt P0DTD1)
# Experiment: FRET peptide
# Assay type: biochemical
smiles,measurement,value
CN1CCN(CC(=O)N2c3ccccc3C(=O)Nc3cccnc32)CC1 [Pirenzepine],% activation at 1 mM,> 15%
